Assay results from patent US5468758A, “Crystalline forms of endo-2,3-dihydro-N-(8-methyl)-8-azabicyclo[3.2.1]oct-3-yl)-2-oxo-1H-benz imidazole-1-carboxamides” (Boehringer Ingelheim Italia S.p.A., priority 1992, dated 1995).
Structures can show the parent of a compound that is named as a salt. Where two headings read alike, the source gives them in different places. Values belong to the compound of their own block, whether it stands above or below them.

Columns and labels:
Assay type in all cases: physicochemical
[1] = Milling studies (FRITSCH Pulverisette 14 Rotor Speed Mill)
Protocol: The milling process was performed by the FRITSCH Pulverisette 14 Rotor Speed Mill supplied with circular sieve stainless steel with trapezoidal 0.080 mm diameter openings. The samples were passed through the mill twice at 20.000 rpm motor speed. The sample is assayed for title and degradation products by TLC and HPLC, physical state by DSC, water content by TGA, particle size distribution by Mercury Instrusion Porosimetry. The mi 11ed compounds are formulated in capsules and tablets at very low dose level (0.5 mg) by direct mixing and direct compression manufacturing method, respectively.

[2] = Moisture sorption/desorption studies (hygrostat, storage at different temperatures and relative humidity); design: water content (Table VI): unit not given here; conditions: for moisture absorption: different temperatures and relative humidity, in words
Protocol: The determination of the sorption isotherms was carried out in a hygrostat.
At suitable intervals, the sample was weighed by means of a sample balance. The atmosphere in the hygrostat and therefore around the sample of compound 1a (1b) and 2a (2b) was conditioned and kept by a saturated solutions of a suitable salt:
Na Cl saturated solution 75.3% RH/25° C. 74.8% RH/37° C.
KNO3 saturated solution 93.7% RH/25° C. 90.0% RH/37° C.
At the end of the experiment, after completing the hysteresis, that is the adsorption--desorption cycle of humidity, the compound was assayed for the title and degradation products by TLC and HPLC, the physical state by DSC and water content by TGA.

[3] = Moisture content during tablet manufacturing (mixing and tableting); conditions: for Moisture content: % on the weight of compound 1a
Description: As a consequence, storage of compound 2a may be effected in normal conditions and no particular precautions are needed to avoid exposure to moisture. The titer of compound 2a, when it is stored in normal conditions, is therefore maintained at difference with compound 1a which, in the same conditions, may show different titles according to the water content. The hygroscopicity may also influence the drug title immediately after the manufacturing of tablets. In fact during the process of manufacturing the drug exposed at normal ambient conditions where it can take up moisture.

[4] = Long-term real time stability tests in tablets and capsules; conditions: tablets and capsules in PVC/PVDC blister with aluminium foil
Description: (§1) Drug stability in these final compositions may be measured in accelerated stability tests or in long term real time stability tests. In accelerated stability tests, the above pharmaceutical compositions are exposed at high temperatures at different degrees of relative humidity for a period of time. Such tests are considered to be indicative of the stability of the composition at normal conditions. In long term real time stability studies the final compositions are exposed to normal conditions of storage at ambient temperatures at different degrees of relative humidity.
Tablets and capsules are packaged in PVC/PVDC blister with aluminium foil

[5] = Accelerated stability tests in tablets and capsules; conditions: tablets and capsules in PVC/PVDC blister with aluminium foil
Description: as §1
(*)according to H. Leven Berger Pharm. Act. Helv. 50 (1975) 88-91 it is
equivalent to 2 years storage at room temperature. Tablets and capsules
are packaged in PVC/PVDC blister with aluminium foil.
(*)according to "Guidelines for stability studies for Human Drugs and
Biologics" (1987) (USA/FDA) it is equivalent to 2 years at room
temperature. Tablets and capsules are packaged in PVC/PVDC blister with […]

Structure (SMILES): CCn1c(=O)n(C(=O)N[C@H]2C[C@H]3CC[C@@H](C2)N3C)c2ccccc21 [Compound 1b, endo-3-ethyl-2,3-dihydro-N-(8-methyl-8-azabicyclo-[3.2.1]oct-3-yl)-2-oxo-1H-benzimidazole-1-carboxamide hydrochloride, reference compound]
humidity content ([1]; after milling, hydrochloride): 2.32%
humidity content ([1]; before milling): 0.87%
water content (Table VI) ([2]; 37° C., 49.2% RH, 2 h, hydrochloride): 2.18
water content (Table VI) ([2]; 37° C., 49.2% RH, 4 h, hydrochloride): 2.58
water content (Table VI) ([2]; 37° C., 49.2% RH, 6 h, hydrochloride): 3.01
water content (Table VI) ([2]; 37° C., 49.2% RH, 1 d, hydrochloride): 4.07
water content (Table VI) ([2]; 37° C., 49.2% RH, 4 d, hydrochloride): 4.81
water content (Table VI) ([2]; 37° C., 49.2% RH, 10 d, hydrochloride): 4.82
water content (Table VI) ([2]; 37° C., 49.2% RH, 30 d, hydrochloride): 4.81
water content (Table VI) ([2]; 37° C., 49.2% RH, time 0, hydrochloride): 1.13
water content (Table VI) ([2]; 37° C., 74.8% RH, 2 h, hydrochloride): 4.99
water content (Table VI) ([2]; 37° C., 74.8% RH, 4 h, hydrochloride): 4.93
water content (Table VI) ([2]; 37° C., 74.8% RH, 6 h, hydrochloride): 4.97
water content (Table VI) ([2]; 37° C., 74.8% RH, 1 d, hydrochloride): 4.90
water content (Table VI) ([2]; 37° C., 74.8% RH, 4 d, hydrochloride): 4.92
water content (Table VI) ([2]; 37° C., 74.8% RH, 10 d, hydrochloride): 4.85
water content (Table VI) ([2]; 37° C., 74.8% RH, 30 d, hydrochloride): 4.81
water content (Table VI) ([2]; 37° C., 74.8% RH, time 0, hydrochloride): 1.13
moisture absorption ([2]; hydrochloride): marked tendency to moisture absorption

particle size reduction (milling efficiency) ([1]; Mercury Porosimetry Analysis, in words): same rank order
percentage of degradation products after milling ([1]; rotor speed of 20,000 rpm): 0.65%
Moisture content ([3]; Final (b), tableting): 1.02%
Moisture content ([3]; Intermediate (a), mixing): 0.66%
Moisture content ([3]; Start): 0.62%
water content during manufacturing ([3]; mixing (a) and tableting (b) phases, in words): increases its water content
% degradation ([4]; 3 months/40° C., 129600 min): 0.6%
% degradation ([4]; 6 months/30° C.-70% RH, 259200 min): 0.5%
% degradation ([4]; 6 months/40° C., 259200 min): 1.1%
% degradation ([5]; 1 month/55° C., 43200 min): 2.0%
degraded at 2160 h ([5]; tablets and capsules, 3 months/40° C.-75% RH, read-out: % degradation): 0.8%
degraded at 2160 h ([5]; tablets and capsules, 3 months/55° C., read-out: % degradation): 3.2%
degraded at 4320 h ([5]; tablets and capsules, 6 months/40° C.-75% RH, read-out: % degradation): 1.7%
water content (Table III) ([2]; 37° C., 75% RH, 2 h): 0.34%
water content (Table III) ([2]; 37° C., 75% RH, 4 h): 0.39%
water content (Table III) ([2]; 37° C., 75% RH, 6 h): 0.59%
water content (Table III) ([2]; 37° C., 75% RH, 1 d): 1.95%
water content (Table III) ([2]; 37° C., 75% RH, 5 d): 5.09%
water content (Table III) ([2]; 37° C., 75% RH, 9 d): 5.13%
water content (Table III) ([2]; 37° C., 75% RH, 15 d): 5.13%
water content (Table III) ([2]; 37° C., 94% RH, 2 h): 1.93%
water content (Table III) ([2]; 37° C., 94% RH, 4 h): 3.41%
water content (Table III) ([2]; 37° C., 94% RH, 6 h): 4.68%
water content (Table III) ([2]; 37° C., 94% RH, 1 d): 5.04%
water content (Table III) ([2]; 37° C., 94% RH, 5 d): 5.06%
water content (Table III) ([2]; 37° C., 94% RH, 9 d): 5.06%
water content (Table III) ([2]; 37° C., 94% RH, 15 d): 5.04%
water content (Table III) ([2]; Room Temperature, 75% RH, 2 h): 0.68%
water content (Table III) ([2]; Room Temperature, 75% RH, 4 h): 0.74%
water content (Table III) ([2]; Room Temperature, 75% RH, 6 h): 0.78%
water content (Table III) ([2]; Room Temperature, 75% RH, 1 d): 1.25%
water content (Table III) ([2]; Room Temperature, 75% RH, 4 d): 2.54%
water content (Table III) ([2]; Room Temperature, 75% RH, 8 d): 3.5%
water content (Table III) ([2]; Room Temperature, 75% RH, 20 d): 4.59%
water content (Table III) ([2]; Room Temperature, 75% RH, 40 d): 4.95%
water content (Table III) ([2]; Room Temperature, 94% RH, 2 h): 1.28%
water content (Table III) ([2]; Room Temperature, 94% RH, 4 h): 1.92%
water content (Table III) ([2]; Room Temperature, 94% RH, 6 h): 2.41%
water content (Table III) ([2]; Room Temperature, 94% RH, 1 d): 5.33%
water content (Table III) ([2]; Room Temperature, 94% RH, 4 d): 5.39%
water content (Table III) ([2]; Room Temperature, 94% RH, 8 d): 5.39%
water content (Table III) ([2]; Room Temperature, 94% RH, 20 d): 5.4%
water content (Table III) ([2]; Room Temperature, 94% RH, 40 d): 5.42%
moisture absorption [2]: marked tendency to moisture absorption
Structure (SMILES): CN1C2CCC1CC(NC(=O)n1c(=O)[nH]c3ccccc31)C2 (stereo not drawn) [Compound 1a, endo-2,3-dihydro-N-(8-methyl-8-azabicyclo[3.2.1]oct-3-yl)-2-oxo-1H-benzimidazole-1-carboxamide, reference compound]
